Assay results taken from publication PMC5650142, “GPR40 partial agonists and AgoPAMs: Differentiating effects on glucose and hormonal secretions in the rodent” (PLoS ONE, 2017).
Several values for one entry are separate records, joined by “and”; a condition that tells them apart may be missing. Identical values can stand only once. Like-named read-outs stand apart in the source and are kept apart here.

Legend:
[1] = biological target: T1, rat GPR40 (Rattus norvegicus, UniProt Q8K3T4); assay: Rat GPR40 IP1 accumulation assay; type: cell-based
T1 construct: expressed in transfected cells; host or cells: CHO-K1 (methods)
T1 sequence (Q8K3T4 whole entry): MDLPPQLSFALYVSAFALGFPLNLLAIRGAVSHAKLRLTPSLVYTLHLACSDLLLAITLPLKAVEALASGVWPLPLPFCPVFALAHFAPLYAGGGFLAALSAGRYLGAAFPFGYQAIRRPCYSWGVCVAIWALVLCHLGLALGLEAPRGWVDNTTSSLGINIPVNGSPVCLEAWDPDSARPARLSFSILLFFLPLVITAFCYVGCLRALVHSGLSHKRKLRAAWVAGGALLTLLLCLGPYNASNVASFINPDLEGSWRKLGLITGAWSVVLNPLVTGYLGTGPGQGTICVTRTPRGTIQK
Procedure: (§1) Stable cell lines expressing human GPR40 (hGPR40/HEK293), mouse GPR40 (mGPR40/CHO-K1), and rat GPR40 (rGPR40/CHO-K1) were cultured in DMEM media supplemented with 10% FBS, glutamine, non-essential amino acids, and penicillin/streptomycin. hGPR40/HEK293 & mGPR40/CHO-K1 cell media was supplemented with […] G418 (Life Technologies), while rGPR40/CHO-K1 cells were grown in […] blasticidin plus […] hygromycin (Life Technologies). Cell stocks were maintained and grown in a sub-confluent state using standard cell culture procedures. The day before the experiment, the cells were harvested with non-enzymatic cell dissociation buffer and re-suspended in DMEM supplemented with 10% FBS, glutamine, non-essential amino acids, penicillin/streptomycin at 0.15, 0.2 and 0.3 million cells per ml for human, mouse, and rat GPR40, respectively. […] The seeded plates were incubated overnight at 37 C.
(§2) On the day of the experiment, the growth media was removed from the assay by gently patting the assay plates on an absorbent sheet and 10 μl of IP1 stimulation buffer (Cis Bio IP-one Tb HTRF kit) supplemented with 50 mM LiCl is added to each well. Test compounds dissolved in DMSO were serially diluted in ½ log increments starting from 2 mM or 0.2 mM and 50 nl of the compound dilution was acoustically added to each well (final starting concentration 10 μM or 1 μM). Plates were then incubated for 60 minutes at room temperature and 10 μl of detection buffer (prepared as described in the Tb kit) is added to each well. The plates are then incubated one additional hour at room temperature. […] For each assay, a standard curve plate in which IP1 is titrated is also included. […] The percent activity at each concentration of test compound is determined using 0% activation (basal activity) determined in those wells that contain DMSO alone, while 100% activity is determined in wells that contained a concentration of a partial allosteric agonist know to activate GPR40. The % activity is then plotted versus the concentration of test compound and the dose response curve fitted to a standard 4-parameter non-linear regression model using a custom in-house developed software package (Merck & Co., Inc., MRL, Kenilworth, NJ, USA). Maximal % activity and EC50 are then determined for each test compound.

[2] = biological target: T2, mouse GPR40 (Mus musculus, UniProt Q76JU9); assay: Mouse GPR40 IP1 accumulation assay; type: cell-based
T2 construct: expressed in transfected cells; host or cells: CHO-K1 (methods)
T2 sequence (Q76JU9 whole entry): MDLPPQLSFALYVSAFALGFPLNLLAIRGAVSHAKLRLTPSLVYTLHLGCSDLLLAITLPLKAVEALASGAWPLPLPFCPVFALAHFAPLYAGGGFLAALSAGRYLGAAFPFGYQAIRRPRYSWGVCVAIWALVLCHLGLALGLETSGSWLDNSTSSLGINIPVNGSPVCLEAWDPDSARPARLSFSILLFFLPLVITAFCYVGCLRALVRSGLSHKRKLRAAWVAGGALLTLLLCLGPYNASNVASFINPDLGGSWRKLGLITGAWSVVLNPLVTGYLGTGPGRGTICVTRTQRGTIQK
Procedure: as §1, §2

[3] = test system: GK rats; assay: GK rat chronic efficacy (28 days: glucose, food intake, body weight, GLP-1, GIP, PYY, insulin, glucagon); type: in vivo; conditions: 30 mpk, day 28, fed, individual animals
Procedure: At the start of the study, fed (ambient) blood glucose was measured via glucometer at 1 h post lights on, and animals were selected and sorted into treatment groups based on ambient glucose (n = 10/ GK group, n = 6 WKY control). Blood for baseline incretin measurements was collected in the PM via tail vein. Rats were dosed via oral gavage (PO) at a volume of 5 ml/kg daily at approximately 12:30 PM with either vehicle (0.5% methylcellulose), AP1 at 30 mg/kg, or AP3 at 30 mg/kg. MK-8666, a GPR40 partial agonist synthesized at Merck & Co., Inc., Kenilworth, NJ USA [13], at 30 mg/kg was administered in feed (Research Diets, New Brunswick, NJ) and provided ad lib. All compounds were administered to achieve maximal efficacious exposures determined in acute efficacy studies similar to those acute studies described above. In brief, partial agonists and AgoPAMs were titrated in the acute GK rat experiment described above and the exposure associated with maximal efficacy in glucose lowering was noted. Partial agonists and AgoPAMs were then dosed to maintain those exposures up to 24h post dose. […] Rats from this group and the WKY controls were administered vehicle PO when the vehicle, AP1, and AP3 groups were treated. Fed blood glucose, food intake, and body weights were determined on days 10, 17, 23, and 28 of study at 2 h post lights on. Immediately after these measures were taken on days 10, 17, 23, and 28, food was removed. After 5h of fasting, animals were dosed with vehicle or compound and allowed to rest for an additional hour. Glucose, GLP-1, GIP, and PYY were measured after 6h of fasting at 1 hr post dose. Fed blood glucose is described by animals having had ad libidum access to feed up till the time of sampling and occurred at 2h post-lights on where rats were nearing the end of their nocturnal feeding cycle. Fasted blood glucose is described by blood glucose sampled after 6h of fasting where food was removed at 2h post lights on. Please note that the fasted sample was taken 1h post oral dosing. On day 10, blood was collected from the tail vein (20 μl) after morning glucose measures and after 6 hour fast from a subset of n = 3 rats per treatment group to determine the fed and fasted exposure of the compounds in circulation. The blood was stored at 4°C in 0.1 M sodium citrate for subsequent analysis of drug exposure.
Blood for insulin, glucagon, GLP-1, GIP, and PYY measurements was collected into K2EDTA Microtainer tubes (BD, Franklin Lakes, NJ) pre-treated with DPP4 inhibitor (Millipore, Billerica, MA) and cOmplete™ Protease Inhibitor Cocktail Tablets (Roche Diagnostics, Indianapolis, IN). Tubes were centrifuged for 10 minutes at 5000 RPM, and plasma was aliquotted for analysis. Plasma insulin levels were measured via EIA (Mesoscale Discovery ELISA Kit, Gaithersburg MD). Rat plasma total GLP-1 was measured using Total GLP-1 (ver.2) Assay Kit (Cat#: K150JVC). The measurement of active GLP-1 was carried out in a similar manner as that described for total GLP-1 assay with the exception that MSD Active GLP-1 (ver. 2) assay kit (Cat# K150JWC) was used. Rat plasma glucagon was measured using an in-house glucagon assay developed as a MSD format sandwich immunoassay (Merck & Co., Inc., MRL, Kenilworth, NJ USA). The antibody specificity was cross validated via mass- spec using procedures described in Lee et al. Briefly, MSD Streptavidin Gold plates were coated with 2 μg/ml biotin mouse monoclonal antibody generated to glucagon. Test samples were added to the plates and a separate Sulfo- tagged monoclonal antibody was used to detect the captured glucagon protein (2 μg/ml). The ELISA was carried out in the standard reagents in the MSD format. The plate was read on the SECTOR Imager 6000 Reader. Metabolic hormones GIP (Gastric Inhibitory Polypeptide) and PYY (Peptide YY) were measured in rat plasma using the Rat Metabolic Magnetic Bead Panel (EMD Millipore, Billerica, MA). The assay was performed according to manufacturer protocol. […]

[4] = test system: GK rats; assay: GK rat acute efficacy (glucose, insulin, glucagon after single dose); type: in vivo; conditions: 100 mpk
Procedure: Ambient blood glucose was measured via tail snip with a glucometer (OneTouch Ultra, Lifescan Inc., Milpitas, CA). Body weights were then measured, and food was removed approximately 1 hr post lights on. Animals were sorted into treatment groups based on ambient glucose. At approximately 10 AM, glucose was measured and blood for insulin, glucagon, and drug exposure was collected. […] Each compound tested was dosed at its maximal effective dose determined through a series of dose titrations using this experimental paradigm (data not shown). Effects of treatment on glucose, insulin, and glucagon were measured at 1, 2, 4, and 24 hrs post dose. After the 4 hr blood collection, food was returned overnight and removed the next day at 1 hr post lights on.
Blood for insulin, glucagon, GLP-1, GIP, and PYY measurements was collected into K2EDTA Microtainer tubes (BD, Franklin Lakes, NJ) pre-treated with DPP4 inhibitor (Millipore, Billerica, MA) and cOmplete™ Protease Inhibitor Cocktail Tablets (Roche Diagnostics, Indianapolis, IN). Tubes were centrifuged for 10 minutes at 5000 RPM, and plasma was aliquotted for analysis. Plasma insulin levels were measured via EIA (Mesoscale Discovery ELISA Kit, Gaithersburg MD). Rat plasma total GLP-1 was measured using Total GLP-1 (ver.2) Assay Kit (Cat#: K150JVC). The measurement of active GLP-1 was carried out in a similar manner as that described for total GLP-1 assay with the exception that MSD Active GLP-1 (ver. 2) assay kit (Cat# K150JWC) was used. Rat plasma glucagon was measured using an in-house glucagon assay developed as a MSD format sandwich immunoassay (Merck & Co., Inc., MRL, Kenilworth, NJ USA). The antibody specificity was cross validated via mass- spec using procedures described in Lee et al. Briefly, MSD Streptavidin Gold plates were coated with 2 μg/ml biotin mouse monoclonal antibody generated to glucagon. Test samples were added to the plates and a separate Sulfo- tagged monoclonal antibody was used to detect the captured glucagon protein (2 μg/ml). The ELISA was carried out in the standard reagents in the MSD format. The plate was read on the SECTOR Imager 6000 Reader. Metabolic hormones GIP (Gastric Inhibitory Polypeptide) and PYY (Peptide YY) were measured in rat plasma using the Rat Metabolic Magnetic Bead Panel (EMD Millipore, Billerica, MA). The assay was performed according to manufacturer protocol.

## CC#C[C@@H](CC(=O)O)c1ccc(OCc2cccc(-c3ccc(C(F)(F)F)cc3)c2)cc1 [AMG-837, reference compound]
[1]; EC50 (nM), Rat GPR40, Functional Assay, individual determinations
  EC50: 1.9 nM and 1.6 nM and 1.2 nM and 0.9 nM and 1.8 nM and 1.1 nM
[1]; individual determinations, read-out: EC50 (nM), Rat GPR40, Functional Assay
  EC50: 1.3 nM and 2.2 nM
[1]; mean ± SD, n = 2–20, IP accumulation, read-out: Potency [EC50, nM] ± SD, Rat
  EC50: 1.5 ± 0.41 nM
[2]; EC50 (nM), Mouse GPR40, Functional Assay, individual determinations
  EC50: 2.6 nM and 3.6 nM and 1.7 nM and 1.1 nM and 1.8 nM
[2]; Potency [EC50, nM] ± SD, Mouse, mean ± SD, n = 2–20, IP accumulation
  EC50: 1.9 ± 0.76 nM
[2]; individual determinations, read-out: EC50 (nM), Mouse GPR40, Functional Assay
  EC50: 2 nM

## C[C@H](C(=O)O)[C@H](c1ccc2c(c1)O[C@H](C1CN(Cc3cc(C(F)(F)F)ccc3C(F)(F)F)C1)CC2)C1CC1 [P3]
[3]
  Fed glucose on day 28 (Fig 3B): 141 and 132 and 113 and 119 and 112 and 106 and 116 and 101

## Cc1cc(OCCCS(C)(=O)=O)cc(C)c1-c1cccc(COc2ccc3c(c2)OC[C@H]3CC(=O)O)c1 [TAK]
[4]; time 0, individual animals
  Plasma Glucagon Over Time (Fig 2C): 75.2366 pg/mL and 59.5419 pg/mL and 46.7473 pg/mL and 119.065 pg/mL and 82.5246 pg/mL and 83.5453 pg/mL and 74.4881 pg/mL and 90.3444 pg/mL
  Plasma Insulin Over Time (Fig 2B): 2.655 ng/mL and 1.525 ng/mL and 2.703 ng/mL and 2.889 ng/mL and 1.936 ng/mL and 1.972 ng/mL and 2.503 ng/mL and 2.551 ng/mL
[4]; time 1, individual animals
  Plasma Glucagon Over Time (Fig 2C): 168.277 pg/mL and 120.989 pg/mL and 104.57 pg/mL and 184.364 pg/mL and 130.682 pg/mL and 112.051 pg/mL and 81.0192 pg/mL and 132.45 pg/mL
  Plasma Insulin Over Time (Fig 2B): 3.3854 ng/mL and 2.854 ng/mL and 4.397 ng/mL and 4.229 ng/mL and 2.551 ng/mL and 2.055 ng/mL and 2.175 ng/mL and 2.74 ng/mL
[4]; time 2, individual animals
  Plasma Glucagon Over Time (Fig 2C): 165.323 pg/mL and 244.359 pg/mL and 138.27 pg/mL and 211.843 pg/mL and 72.9369 pg/mL and 186.55 pg/mL and 94.6201 pg/mL and 160.38 pg/mL
  Plasma Insulin Over Time (Fig 2B): 2.858 ng/mL and 2.437 ng/mL and 3.152 ng/mL and 3.268 ng/mL and 1.276 ng/mL and 1.644 ng/mL and 1.778 ng/mL and 2.202 ng/mL
[4]; time 4, individual animals
  Plasma Glucagon Over Time (Fig 2C): 85.2047 pg/mL and 62.7395 pg/mL and 105.981 pg/mL and 18.1244 pg/mL and 124.809 pg/mL and 199.712 pg/mL and 103.043 pg/mL and 175.312 pg/mL
  Plasma Insulin Over Time (Fig 2B): 1.494 ng/mL and 1.787 ng/mL and 2.636 ng/mL and 1.66 ng/mL and 1.848 ng/mL and 1.214 ng/mL and 2.191 ng/mL and 1.8763 ng/mL
[4]; time 24, individual animals
  Plasma Glucagon Over Time (Fig 2C): 86.4436 pg/mL and 115.249 pg/mL and 67.5931 pg/mL and 36.8268 pg/mL and 81.8289 pg/mL and 118.991 pg/mL and 35.1523 pg/mL and 94.7909 pg/mL
  Plasma Insulin Over Time (Fig 2B): 1.093 ng/mL and 1.2004 ng/mL and 2.002 ng/mL and 0.9338 ng/mL and 1.238 ng/mL and 1.808 ng/mL and 1.437 ng/mL and 1.841 ng/mL
